Assay results: patent publication US8703754B2, “6-amino-2-{[(1S)-1-methylbutyl]oxy}-9-[5-(1-piperidinyl)-7,9-dihydro-8H-purin-8-one maleate” (GlaxoSmithKline LLC, priority 2010, dated 2014)

How the values were obtained:
[1] = Stability testing under ICH Q1A(R2) and Q1B conditions; assay type: physicochemical; settings: ICH Q1A(R2) stability and Q1B photostability conditions
[2] = system: Interferon-α; assay: Induction of Interferon-α using fresh human PBMCs; assay type: cell-based; settings: PBMC, 24 hr, relative to 2 μM resiquimod control, read-out: mean pEC50 for induction of IFN-α (converted)
Experimental: (§1) Assay for the Induction of Interferon-α and TNF-α Using Fresh Human Peripheral Blood Mononuclear Cells (PBMCs)
(§2) 1 μL of test compound was transferred into 96-well tissue culture plates using a Biomek FX. Each compound was assayed in duplicate for each donor. Each plate contained a dilution series of the TLR7/8 agonist resiquimod as standard and Column 11 contained 1 μL of 200 μM resiquimod (giving a 2 μM final concentration, used to define the approximate maximal response to resiquimod).
(§3) Blood samples from two human donors were collected into sodium heparin (10 U/mL). 25 mL volumes of whole blood were overlaid onto 15 mL Histopaque in Leucosep tubes which were centrifuged at 800 g for 20 min and the band at the plasma/histopaque interface carefully removed. The collected cells were centrifuged at 2500 rpm for 10 min and the pellet resuspended in 10 mL of media (RPMI 1640 (Low endotoxin) supplemented with 10% v/v foetal calf serum (FCS, low endotoxin) 100 U/mL penicillin G, 100 μg/mL streptomycin, 10 mM L-glutamine and 1× non-essential amino acids). A 1:20 dilution of the cells was prepared using trypan blue and the cells counted using a haemocytometer.
(§4) Incubation and Assays for Interferon-α and TNF-α

[3] = system: Interferon-α; assay: Induction of Interferon-α following intranasal dosing in the mouse; assay type: in vivo; settings: female BALB/c mice, 2 hours after dosing, ELISA
Experimental: Assay for the Induction of Interferon-α Following Intranasal Dosing in the Mouse
The compound of Reference Example 1 was dissolved in 0.2% Tween 80 in saline and administered intranasally (5 μL in total between the nostrils) to female BALB/c mice (n=6) under general anaesthesia. Animals were euthanased 2 hours after dosing and a terminal blood sample was taken and serum levels of Interferon-a measured using an ELISA assay.

[4] = system: IL-5; assay: Allergen-driven cytokine assay using fresh human PBMCs from atopic volunteers (IL-5); assay type: cell-based; settings: 0.04 μM; PBMCs from three allergic donors, 10 ug/mL Timothy Grass antigen, up to 6 days
Experimental: (§5) Allergen-driven Cytokine Assay Using Fresh Human Peripheral Blood Mononuclear Cells (PBMCs) from Atopic Volunteers
(§6) An assay based on co-culture of atopic human donor derived peripheral blood mononuclear cells (PBMCs) with allergen and test compounds was developed. After 5-6 days culture, cell supernatants were assayed for a range of cytokines.
(§7) Each compound was assayed in triplicate at all concentrations.
(§8) Defibrinated human blood from volunteers known to be allergic to Timothy grass was centrifuged at 2500 rpm for 15 minutes. The upper layer of serum was collected and heat-inactivated at 56° C. for 30 minutes (HI-autologous serum). The lower layer of cells was resuspended in 50 mL PBS (+Ca +Mg), 25 mL diluted blood were overlaid onto 20 mL Lymphoprep in 50 ml tubes then centrifuged at 2500 rpm for 20 minutes at RT. The band at the serum/Lymphoprep interface was carefully removed. The collected cells were washed with PBS and re-suspended at 4×10^6 per mL in growth medium with HI-autologous serum. PBMCs were seeded at 0.4×10^6 cells per well in flat-bottomed 96 well plates in the presence of 10 ug/mL Timothy Grass antigen (Alk Abello) and test compounds at appropriate concentrations in a total volume of 200 μL.
(§9) Incubation and Cytokine Assays
(§10) Plates were incubated at 37° C. in 5% CO2 for up to 6 days. The cell medium from each well was harvested and stored at −20° C. prior to analysis.

[5] = system: IL-13; assay: Allergen-driven cytokine assay using fresh human PBMCs from atopic volunteers (IL-13); assay type: cell-based; settings: 0.04 μM; PBMCs from three allergic donors, 10 ug/mL Timothy Grass antigen, up to 6 days
Experimental: as §5, §6, §7, §8, §9, §10

[6] = system: TNF-α; assay: Induction of TNF-α using fresh human PBMCs; assay type: cell-based; settings: PBMC, 24 hr, relative to 2 μM resiquimod control, read-out: mean pEC50 for induction of TNF-α (converted)
Experimental: as §1, §2, §3, §4

[7] = system: Interferon-α; assay: Induction of Interferon-α using cryopreserved human PBMCs; assay type: cell-based; settings: PBMC, 24 hours, normalised to 1 μM resiquimod and DMSO, read-out: mean pEC50 for induction of IFN-α (converted)
Experimental: Assay for the Induction of Interferon-α Using Cryopreserved Human Peripheral Blood Mononuclear Cells (PBMCs)
Serial 2-fold dilutions with DMSO were prepared and 0.25 μl dispensed into 384-well clear Greiner polypropylene plates.
Blood samples of up to 200 mL were obtained from healthy human donors. Whole blood in 25 mL volumes was overlaid onto 15 mL Ficoll gradients in Leucosep tubes, and centrifuged at 1000 g for 20 min. Cells in the band at the plasma/histopaque interface were carefully removed and washed twice with PBS (centrifuged at 400 g for 5 min to harvest). The final pellet was resuspended in freezing medium (90% Heat-inactivated serum, 10% DMSO) to a cell concentration of 4×10^7 cells/mL. The resuspended cells were then cryopreserved (frozen) using a rate controlled freezer, and stored at −140° C. for up to 4 months.
Incubation and Assay for Interferon-α
Immediately prior to assay, vials of cryopreserved (frozen) PBMCs were thawed rapidly in a water bath at 37° C. A 1:10 dilution of the cells in trypan blue was prepared and counted. […]
A multi-isoform immunoassay was used to quantify IFN-α in PBMC supernatants. […] Following three washes with PBS, 30 μl of ×2 T buffer (MSD) was added to each well and the plate was read on an MSD Sector 6000 plate reader. […]

Row | SMILES | degradation under stability testing [1] | EC50 [2] [nM] | mean serum levels of Interferon-α [3] [pg/mL] | reduction of production of the Th2 cytokine IL-5 compared to the allergen control [4] [%] | reduction of production of the Th2 cytokine IL-13 compared to the allergen control [5] [%] | EC50 [6] [nM] | EC50 [7] [nM]
1 | CCC[C@H](C)Oc1nc(N)c2[nH]c(=O)n(CCCCCN3CCCCC3)c2n1.O=C(O)/C=C\C(=O)O [Example 2, 6-Amino-2-{[(1S)-1-methylbutyl]oxy}-9-[5-(1-piperidinyl)pentyl]-7,9-dihydro-8H-purin-8-one, Maleate Salt] | no significant degradation |  |  |  |  |  | 
2 | CCC[C@H](C)Oc1nc(N)c2[nH]c(=O)n(CCCCCN3CCCCC3)c2n1 [Reference Example 1, 6-Amino-2-{[(1S)-1-methylbutyl]oxy}-9-[5-(1-piperidinyl)pentyl]-7,9-dihydro-8H-purin-8-one] |  | ≤ 1 | 21029 | ≥ 50 | ≥ 50 | ≥ 316 | < 5.01
